Source: patent publication US20210023159A1, “METHOD FOR PROMOTING GROWTH OF AKKERMANSIA MUCINIPHILA USING MUSA FERMENTS” (TCI CO., LTD., priority 2019, published 2021)

System: Akkermansia muciniphila BCRC 81048 strain
Assay: Prebiotic test for A. muciniphila (single candidate prebiotics, plate count)
Type: cell-based
Conditions: 1% (w/w) candidate prebiotic in BHI medium, 48 h anaerobic incubation at 37° C.; control group = 100%
Text: The Akkermansia muciniphila used in the Examples described herein is the Akkermansia muciniphila BCRC 81048 strain purchased from BCRC at the Food Industry Research and Development Institute (also deposited under ATCC BAA-835). For subsequent use in the prebiotic test, the A. muciniphila strain, after thawed and activation, was inoculated at 3% and pre-cultured in BHI medium (15 g BD Difco Brain Heart Infusion broth (Thermo Fischer Scientific) dissolved in 1 L deionized water at a pH value of about 7.0) at 37° C. under an anaerobic condition (10% carbon dioxide, 10% hydrogen, and 80% nitrogen) for 48 hours.
In order to identify the nutrients beneficial to the growth of A. muciniphila, pre-cultured A. muciniphila was inoculated at 3% in BHI medium containing 1% (w/w) of the candidate prebiotics and incubated at 37° C. under anaerobic conditions for 48 hours. The bacterial culture was then spread on BHI agar plates and incubated for 72 hours for bacterial counting. The candidate prebiotic was selected from xylooligosaccharides, isomaltooligosaccharides, lactitol, inulin, fructooligosaccharides, and a banana ferment. For comparison, A. muciniphila was alternatively incubated in BHI medium without candidate prebiotics (control group).

## OC[C@@H](O)[C@@H](O[C@@H]1O[C@H](CO)[C@H](O)[C@H](O)[C@H]1O)[C@H](O)[C@@H](O)CO [lactitol]
  relative bacterial count of A. muciniphila: ~258%

## inulin
  relative bacterial count of A. muciniphila: about 110%
